Assay [1] deals with T1, JAK3 (Homo sapiens, UniProt P52333).
T1 sequence (P52333 1-1124): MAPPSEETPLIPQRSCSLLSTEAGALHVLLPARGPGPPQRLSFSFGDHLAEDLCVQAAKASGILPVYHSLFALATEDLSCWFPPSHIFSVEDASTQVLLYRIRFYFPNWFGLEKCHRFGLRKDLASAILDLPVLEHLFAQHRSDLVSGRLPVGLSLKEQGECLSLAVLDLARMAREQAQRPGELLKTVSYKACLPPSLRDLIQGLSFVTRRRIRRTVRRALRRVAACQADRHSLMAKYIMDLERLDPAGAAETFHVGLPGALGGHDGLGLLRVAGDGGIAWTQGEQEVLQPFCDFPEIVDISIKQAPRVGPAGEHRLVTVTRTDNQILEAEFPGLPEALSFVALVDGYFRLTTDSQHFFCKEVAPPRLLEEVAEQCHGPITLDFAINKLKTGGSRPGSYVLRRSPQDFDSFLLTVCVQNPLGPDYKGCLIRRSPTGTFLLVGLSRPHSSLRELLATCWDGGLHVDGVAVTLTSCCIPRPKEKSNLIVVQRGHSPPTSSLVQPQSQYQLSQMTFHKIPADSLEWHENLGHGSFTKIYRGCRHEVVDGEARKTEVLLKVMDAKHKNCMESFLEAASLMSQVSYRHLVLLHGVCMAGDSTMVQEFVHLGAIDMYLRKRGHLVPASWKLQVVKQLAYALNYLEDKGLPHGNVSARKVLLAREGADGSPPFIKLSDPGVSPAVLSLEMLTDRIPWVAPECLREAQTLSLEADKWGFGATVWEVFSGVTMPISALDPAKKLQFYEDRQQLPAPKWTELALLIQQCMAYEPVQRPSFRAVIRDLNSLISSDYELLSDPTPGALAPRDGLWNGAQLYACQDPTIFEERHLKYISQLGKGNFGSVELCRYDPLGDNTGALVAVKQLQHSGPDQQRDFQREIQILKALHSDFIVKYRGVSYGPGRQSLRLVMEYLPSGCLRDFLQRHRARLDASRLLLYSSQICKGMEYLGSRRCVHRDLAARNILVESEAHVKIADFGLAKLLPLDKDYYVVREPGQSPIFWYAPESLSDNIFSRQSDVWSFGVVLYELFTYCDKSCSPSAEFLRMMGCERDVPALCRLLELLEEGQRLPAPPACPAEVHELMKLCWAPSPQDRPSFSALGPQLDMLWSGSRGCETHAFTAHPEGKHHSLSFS
In words: Inhibition of a panel of kinases, in vitro HotSpot kinase assay: JAK3. Format: biochemical. The conditions noted are these: D-compounds panel data; 1 μM ATP; read-out: IC50 JAK3.

In assay [2] the target is T2, TEC (Homo sapiens, UniProt P42680).
T2 sequence (P42680 1-631): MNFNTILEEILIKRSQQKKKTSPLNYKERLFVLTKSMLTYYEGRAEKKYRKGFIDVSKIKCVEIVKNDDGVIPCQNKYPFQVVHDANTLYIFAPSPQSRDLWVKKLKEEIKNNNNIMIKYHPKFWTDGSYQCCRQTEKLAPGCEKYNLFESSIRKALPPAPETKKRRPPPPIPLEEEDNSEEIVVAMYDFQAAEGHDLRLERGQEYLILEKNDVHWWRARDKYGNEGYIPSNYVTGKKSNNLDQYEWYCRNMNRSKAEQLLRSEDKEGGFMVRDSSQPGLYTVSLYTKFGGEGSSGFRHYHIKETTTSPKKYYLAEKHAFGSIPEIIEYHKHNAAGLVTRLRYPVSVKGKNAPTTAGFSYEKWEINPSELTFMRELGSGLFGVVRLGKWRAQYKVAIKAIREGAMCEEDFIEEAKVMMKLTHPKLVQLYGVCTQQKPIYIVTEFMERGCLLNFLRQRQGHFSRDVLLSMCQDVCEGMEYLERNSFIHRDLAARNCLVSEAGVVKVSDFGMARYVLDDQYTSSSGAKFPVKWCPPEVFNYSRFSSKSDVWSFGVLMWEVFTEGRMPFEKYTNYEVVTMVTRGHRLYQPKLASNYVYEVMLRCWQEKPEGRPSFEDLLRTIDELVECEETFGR
In words: Inhibition of a panel of kinases, in vitro HotSpot kinase assay: TEC. The assay is classed as biochemical. The note with it: D-compounds panel data; 1 μM ATP. The protocol: The degree of inhibition of a panel of kinases is determined using the in vitro HotSpot kinase assay (purified enzymes, ^33P-ATP, an appropriate substrate and 1 μM ATP).

In patent publication US20210070748A1, “INHIBITORS OF BRUTONS TYROSINE KINASE” (Pharmacyclics LLC, priority 2015, published 2021) one finds IC50 data, which are given here for 17 compounds.

Molecules are shown by their SMILES. Where only a bound is given, the exact number is not on record here.

What is called IC50 is the concentration that inhibits the measured activity by half.

Take `Cn1cc(Nc2nc(N3CCC[C@@H](NC(=O)c4ccc(C5CC5)cc4)C3)cnc2C(N)=O)cn1` [Example D-191, 5-[(3R)-3-(4-cyclopropylbenzamido)piperidin-1-yl]-3-[(1-methyl-1H-pyrazol-4-yl)amino]pyrazine-2-carboxamide]: the values for the IC50 in assay [1] and in assay [2] were 1000 to 10000 nM and 100 to 1000 nM, respectively.
Take `C[C@@H]1[C@H](NC(=O)c2ccc(C3CC3)cc2F)CCCN1c1cnc(C(N)=O)c(Nc2cc(CN3CCOCC3)ns2)n1` [Example D-173, 5-[(2R,3R)-3-(4-cyclopropyl-2-fluorobenzamido)-2-methylpiperidin-1-yl]-3-{[3-(morpholin-4-ylmethyl)-1,2-thiazol-5-yl]amino}pyrazine-2-carboxamide]: the figures for the IC50 in assay [1] and in assay [2] were 100 to 1000 nM and 10 to 100 nM, respectively.
In the same order, the values of `C[C@@H]1[C@H](NC(=O)c2ccc(S(C)(=O)=O)cc2)CCCN1c1cnc(C(N)=O)c(Nc2ccc(N3CCN(C)CC3)cc2)n1` [Example D-227, 5-[(2R,3R)-3-(4-methanesulfonylbenzamido)-2-methylpiperidin-1-yl]-3-{[4-(4-methylpiperazin-1-yl)phenyl]amino}pyrazine-2-carboxamide] are 100 to 1000 nM and no more than 10 nM.
On to `Cn1cc(Nc2nc(N3C4CCC(NC(=O)c5ccc(C6CC6)cc5)C3CC4)cnc2C(N)=O)cn1` (single isomer, unassigned) [Example D-199, 5-[2-(4-cyclopropylbenzamido)-8-azabicyclo[3.2.1]octan-8-yl]-3-[(1-methyl-1H-pyrazol-4-yl)amino]pyrazine-2-carboxamide], for which the IC50 in assay [1] and in assay [2] was 1000 to 10000 nM in each case.
With `C[C@@H]1[C@H](NC(=O)c2ccc3c(c2)OCCO3)CCCN1c1cnc(C(N)=O)c(Nc2cnn(C)c2)n1` [Example D-224, 5-[(2R,3R)-3-(2,3-dihydro-1,4-benzodioxine-6-amido)-2-methylpiperidin-1-yl]-3-[(1-methyl-1H-pyrazol-4-yl)amino]pyrazine-2-carboxamide], the IC50 is 1000 to 10000 nM in assay [1] and no more than 10 nM in assay [2].
In the case of `Cc1nc2cc(C(=O)N[C@@H]3CCCN(c4cnc(C(N)=O)c(Nc5cnn(C)c5)n4)[C@@H]3C)ccc2s1` [Example D-242, N-[(2R,3R)-1-{5-carbamoyl-6-[(1-methyl-1H-pyrazol-4-yl)amino]pyrazin-2-yl}-2-methylpiperidin-3-yl]-2-methyl-1,3-benzothiazole-5-carboxamide], the IC50 in assay [1] is 100 to 1000 nM; in assay [2] it was no more than 10 nM.
As for `C[C@@H]1[C@H](NC(=O)c2ccc(C3(C)COC3)cc2)CCCN1c1cnc(C(N)=O)c(Nc2cnn(C)c2)n1` [Example D-228, 3-[(1-methyl-1H-pyrazol-4-yl)amino]-5-[(2R,3R)-2-methyl-3-[4-(3-methyloxetan-3-yl)benzamido]piperidin-1-yl]pyrazine-2-carboxamide], the IC50 is 1000 to 10000 nM in assay [1] and no more than 10 nM in assay [2].
For `C[C@@H]1[C@H](NC(=O)c2ccc(C(C)(C)C)cc2)CCCN1c1cnc(C(N)=O)c(Nc2ccc(N3CCN(C)CC3)cc2)n1` [Example D-14, 5-[(2R,3R)-3-(4-tert-butylbenzamido)-2-methylpiperidin-1-yl]-3-{[4-(4-methylpiperazin-1-yl)phenyl]amino}pyrazine-2-carboxamide], the results for the IC50 in assay [1] and in assay [2] were 1000 to 10000 nM and 10 to 100 nM, respectively.
For `C[C@H]1CC[C@@H](NC(=O)c2ccc(C(C)(C)O)cc2)CN1c1cnc(C(N)=O)c(Nc2cnn(C)c2)n1` [Example D-236, 5-[(2S,5R)-5-[4-(2-hydroxypropan-2-yl)benzamido]-2-methylpiperidin-1-yl]-3-[(1-methyl-1H-pyrazol-4-yl)amino]pyrazine-2-carboxamide], the half-maximal inhibitory concentration (IC50) in assay [1] is 100 to 1000 nM; in assay [2], no more than 10 nM.
In the case of `Cn1cc(Nc2nc(N3C[C@@H](NC(=O)c4ccc(C5CC5)cc4)CC(F)(F)C3)cnc2C(N)=O)cn1` [Example D-189, 5-[(5S)-5-(4-cyclopropylbenzamido)-3,3-difluoropiperidin-1-yl]-3-[(1-methyl-1H-pyrazol-4-yl)amino]pyrazine-2-carboxamide], the IC50 in assay [1] and in assay [2] was 1000 to 10000 nM each time.
Regarding `C[C@@H]1[C@H](NC(=O)c2ccc(C3CC3)cc2F)CCCN1c1cnc(C(N)=O)c(Nc2cc(CN3CCCCC3)ns2)n1` [Example D-176, 5-[(2R,3R)-3-(4-cyclopropyl-2-fluorobenzamido)-2-methylpiperidin-1-yl]-3-{[3-(piperidin-1-ylmethyl)-1,2-thiazol-5-yl]amino}pyrazine-2-carboxamide], the IC50 was 100 to 1000 nM in assay [1] and 10 to 100 nM in assay [2].
`CN1CCN(c2ccc(Nc3nc(N4CCC[C@@H](n5ccc6cc(C7CC7)ccc6c5=O)C4)cnc3C(N)=O)nc2)CC1` [Example D-179, 5-[(3R)-3-(6-cyclopropyl-1-oxo-1,2-dihydroisoquinolin-2-yl)piperidin-1-yl]-3-{[5-(4-methylpiperazin-1-yl)pyridin-2-yl]amino}pyrazine-2-carboxamide]: the IC50 is greater than 10000 nM in assay [1] and 1000 to 10000 nM in assay [2].
In the same order, the values of `C[C@@H]1[C@H](NC(=O)c2ccc3c(cnn3C)c2)CCCN1c1cnc(C(N)=O)c(Nc2ccc(N3CCN(C)CC3)cc2)n1` [Example D-234, N-[(2R,3R)-1-(5-carbamoyl-6-{[4-(4-methylpiperazin-1-yl)phenyl]amino}pyrazin-2-yl)-2-methylpiperidin-3-yl]-1-methyl-1H-indazole-5-carboxamide] are 100 to 1000 nM and no more than 10 nM.
Consider `Cc1ccc(C(=O)N[C@@H]2CCCN(c3cnc(C(N)=O)c(Nc4cnn(C)c4)n3)[C@@H]2C)cc1` [Example D-232, 3-[(1-methyl-1H-pyrazol-4-yl)amino]-5-[(2R,3R)-2-methyl-3-(4-methylbenzamido)piperidin-1-yl]pyrazine-2-carboxamide], for which the IC50 in assay [1] was 1000 to 10000 nM; in assay [2] it was no more than 10 nM.
For the compound `C[C@@H]1[C@H](NC(=O)c2ccc(C3CC3)cc2)CCCN1c1cnc(C(N)=O)c(Nc2cnn(C)c2)c1` [Example D-207, 5-[(2R,3R)-3-(4-cyclopropylbenzamido)-2-methylpiperidin-1-yl]-3-[(1-methyl-1H-pyrazol-4-yl)amino]pyridine-2-carboxamide], the IC50 in assay [1] and in assay [2] was 100 to 1000 nM each time.
As to `C[C@@H]1[C@H](NC(=O)c2ccc3scnc3c2)CCCN1c1cnc(C(N)=O)c(Nc2ccc(N3CCN(C)CC3)cc2)n1` [Example D-226, N-[(2R,3R)-1-(5-carbamoyl-6-{[4-(4-methylpiperazin-1-yl)phenyl]amino}pyrazin-2-yl)-2-methylpiperidin-3-yl]-1,3-benzothiazole-5-carboxamide], the IC50 is 100 to 1000 nM in assay [1] and no more than 10 nM in assay [2].
In the same order, the values of `C[C@@H]1[C@H](NC(=O)c2ccc3scnc3c2)CCCN1c1cnc(C(N)=O)c(Nc2cnn(C)c2)n1` [Example D-237, N-[(2R,3R)-1-{5-carbamoyl-6-[(1-methyl-1H-pyrazol-4-yl)amino]pyrazin-2-yl}-2-methylpiperidin-3-yl]-1,3-benzothiazole-5-carboxamide] are 100 to 1000 nM and no more than 10 nM.
